{"source": "BindingDB's records for doi:10.1016/j.bmc.2016.08.020", "about": "(University of British Columbia, 2016)", "assay": "Activation of p75NTR in mouse hippocampal neurons assessed as increase in cell survival after 48 hrs by MTT assay", "data": [{"smiles": "CCC(C)C(N)C(=O)NCCN1CCOCC1", "note": "(stereo unspecified)", "values": [{"measurement": "EC50", "result": 20, "unit": "nM"}]}]}
